Results published in US10316017B2, “COT modulators and methods of use thereof” (Gilead Sciences, Inc., priority 2015, dated 2019).

These molecules were tested against T1, human Cot catalytic domain (30-397 amino acids) (Homo sapiens, UniProt P41279) (assay: High Throughput Cot Biochemical Assay (KinEASE TR-FRET)). Conditions: Cot KinEASE TR-FRET, 400 μM ATP; read-out: IC50 HTRF.
T1 construct: Purified recombinant human Cot catalytic domain (30-397 amino acids) was purchased from Cama Biosciences; purchased Cama Biosciences (so in the source)
In short: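 Recombinant human Cot catalytic domain (aa 30-397), 5 nM, with 1 μM STK3 peptide and 400 μM ATP in MOPS pH 7.0 buffer with MgOAc, DTT, BSA, NP-40, glycerol, 0.1% DMSO. Phosphorylated XL665-peptide detected by Eu-[…] antibody TR-FRET.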

T1 sequence (P41279 30-397): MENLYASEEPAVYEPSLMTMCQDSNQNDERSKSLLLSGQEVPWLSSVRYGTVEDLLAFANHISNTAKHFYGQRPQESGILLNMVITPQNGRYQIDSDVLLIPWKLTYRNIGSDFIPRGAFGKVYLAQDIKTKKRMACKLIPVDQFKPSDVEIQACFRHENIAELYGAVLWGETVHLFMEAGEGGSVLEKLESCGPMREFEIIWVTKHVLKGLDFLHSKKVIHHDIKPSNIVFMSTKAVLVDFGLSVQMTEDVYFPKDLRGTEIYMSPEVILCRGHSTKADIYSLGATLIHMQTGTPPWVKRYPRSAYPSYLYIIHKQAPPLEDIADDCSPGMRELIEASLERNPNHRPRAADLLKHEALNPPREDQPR

SMILES | IC50 [nM]
N#Cc1cnc2c(Cl)cc(NC(c3ccc(F)c(F)c3)c3cn(C4CCNCC4)nn3)cc2c1Nc1ccc(F)c(Cl)c1 (stereo not shown) [Example 900, 8-chloro-4-((3-chloro-4-fluorophenyl)amino)-6-(((3,4-difluorophenyl)(1-(piperidin-4-yl)-1H-1,2,3-triazol-4-yl)methyl)amino)quinoline-3-carbonitrile] | 14
CCN1CCC(n2cc(C(Nc3cc(Cl)c4ncc(C#N)c(Nc5ccc(F)c(Cl)c5)c4c3)c3ccc(F)c(F)c3)nn2)CC1 (stereo not shown) [Example 901, 8-chloro-4-((3-chloro-4-fluorophenyl)amino)-6-(((3,4-difluorophenyl)(1-(1-ethylpiperidin-4-yl)-1H-1,2,3-triazol-4-yl)methyl)amino)quinoline-3-carbonitrile] | 11
COc1cccc(C(Nc2cc(Cl)c3ncc(C#N)c(Nc4ccc(F)c(Cl)c4)c3c2)c2cn(C3CCN(C(=O)OCc4ccccc4)CC3)nn2)c1 (stereo not shown) [Example 902, benzyl 4-(4-(((8-chloro-4-((3-chloro-4-fluorophenyl)amino)-3-cyanoquinolin-6-yl)amino)(3-methoxyphenyl)methyl)-1H-1,2,3-triazol-1-yl)piperidine-1-carboxylate] | > 1000
COc1cccc(C(Nc2cc(Cl)c3ncc(C#N)c(Nc4ccc(F)c(Cl)c4)c3c2)c2cn(C3CCNCC3)nn2)c1 (stereo not shown) [Example 903, 8-chloro-4-((3-chloro-4-fluorophenyl)amino)-6-(((3-methoxyphenyl)(1-(piperidin-4-yl)-1H-1,2,3-triazol-4-yl)methyl)amino)quinoline-3-carbonitrile] | 7
CCN1CCC(n2cc(C(Nc3cc(Cl)c4ncc(C#N)c(Nc5ccc(F)c(Cl)c5)c4c3)c3cccc(OC)c3)nn2)CC1 (stereo not shown) [Example 904, 8-chloro-4-((3-chloro-4-fluorophenyl)amino)-6-(((1-(1-ethylpiperidin-4-yl)-1H-1,2,3-triazol-4-yl)(3-methoxyphenyl)methyl)amino) quinoline-3-carbonitrile] | 5
N#Cc1cnc2c(Cl)cc(NC(c3cccc(F)c3)c3cn(C4CCN(C(=O)OCc5ccccc5)CC4)nn3)cc2c1Nc1ccc(F)c(Cl)c1 (stereo not shown) [Example 905, benzyl 4-(4-(((8-chloro-4-((3-chloro-4-fluorophenyl)amino)-3-cyanoquinolin-6-yl)amino)(3-fluorophenyl)methyl)-1H-1,2,3-triazol-1-yl)piperidine-1-carboxylate] | > 1000
N#Cc1cnc2c(Cl)cc(NC(c3cccc(F)c3)c3cn(C4CCNCC4)nn3)cc2c1Nc1ccc(F)c(Cl)c1 (stereo not shown) [Example 906, 8-chloro-4-((3-chloro-4-fluorophenyl)amino)-6-(((3-fluorophenyl)(1-(piperidin-4-yl)-1H-1,2,3-triazol-4-yl)methyl)amino)quinoline-3-carbonitrile] | 8
CCN1CCC(n2cc(C(Nc3cc(Cl)c4ncc(C#N)c(Nc5ccc(F)c(Cl)c5)c4c3)c3ccc(F)cc3)nn2)CC1 (stereo not shown) [Example 908, 8-chloro-4-((3-chloro-4-fluorophenyl)amino)-6-(((1-(1-ethylpiperidin-4-yl)-1H-1,2,3-triazol-4-yl)(4-fluorophenyl)methyl)amino) quinoline-3-carbonitrile] | 5
N#Cc1cnc2c(Cl)cc(NC(c3ccc(Cl)c(Cl)c3)c3cn(C4CCN(C(=O)OCc5ccccc5)CC4)nn3)cc2c1Nc1ccc(F)c(Cl)c1 (stereo not shown) [Example 909, benzyl 4-(4-(((8-chloro-4-((3-chloro-4-fluorophenyl)amino)-3-cyanoquinolin-6-yl)amino)(3,4-dichlorophenyl)methyl)-1H-1,2,3-triazol-1-yl)piperidine-1-carboxylate] | > 1000
N#Cc1cnc2c(Cl)cc(NC(c3ccc(Cl)c(Cl)c3)c3cn(C4CCNCC4)nn3)cc2c1Nc1ccc(F)c(Cl)c1 (stereo not shown) [Example 910, 8-chloro-4-((3-chloro-4-fluorophenyl)amino)-6-(((3,4-dichlorophenyl)(1-(piperidin-4-yl)-1H-1,2,3-triazol-4-yl)methyl)amino)quinoline-3-carbonitrile] | 52

Further lines, results first:

IC50 [nM] | SMILES
36 | CCN1CCC(n2cc(C(Nc3cc(Cl)c4ncc(C#N)c(Nc5ccc(F)c(Cl)c5)c4c3)c3ccc(Cl)c(Cl)c3)nn2)CC1 (stereo not shown) [Example 911, 8-chloro-4-((3-chloro-4-fluorophenyl)amino)-6-(((3,4-dichlorophenyl)(1-(1-ethylpiperidin-4-yl)-1H-1,2,3-triazol-4-yl)methyl)amino)quinoline-3-carbonitrile]
60 | N#Cc1cnc2c(Cl)cc(NC(c3ccccc3)c3cn(CC(=O)O)nn3)cc2c1Nc1ccc(F)c(Cl)c1 (stereo not shown) [Example 912, 2-(4-(((8-chloro-4-((3-chloro-4-fluorophenyl)amino)-3-cyanoquinolin-6-yl)amino)(phenyl)methyl)-1H-1,2,3-triazol-1-yl)acetic acid]
> 1000 | N#Cc1cnc2c(Cl)cc(NC(c3ccc(Cl)cc3)c3cn(C4CCN(C(=O)OCc5ccccc5)CC4)nn3)cc2c1Nc1ccc(F)c(Cl)c1 (stereo not shown) [Example 913, benzyl 4-(4-(((8-chloro-4-((3-chloro-4-fluorophenyl)amino)-3-cyanoquinolin-6-yl)amino)(4-chlorophenyl)methyl)-1H-1,2,3-triazol-1-yl)piperidine-1-carboxylate]
23 | N#Cc1cnc2c(Cl)cc(NC(c3ccc(Cl)cc3)c3cn(C4CCNCC4)nn3)cc2c1Nc1ccc(F)c(Cl)c1 (stereo not shown) [Example 914, 8-chloro-4-((3-chloro-4-fluorophenyl)amino)-6-(((4-chlorophenyl)(1-(piperidin-4-yl)-1H-1,2,3-triazol-4-yl)methyl)amino)quinoline-3-carbonitrile]
> 1000 | Cc1ccc(C(Nc2cc(Cl)c3ncc(C#N)c(Nc4ccc(F)c(Cl)c4)c3c2)c2cn(C3CCN(C(=O)OCc4ccccc4)CC3)nn2)cc1 (stereo not shown) [Example 915, benzyl 4-(4-(((8-chloro-4-((3-chloro-4-fluorophenyl)amino)-3-cyanoquinolin-6-yl)aminoXp-tolyl)methyl)-1H-1,2,3-triazol-1-yl)piperidine-1-carboxylate]
48 | Cc1ccc(C(Nc2cc(Cl)c3ncc(C#N)c(Nc4ccc(F)c(Cl)c4)c3c2)c2cn(C3CCNCC3)nn2)cc1 (stereo not shown) [Example 916, 8-chloro-4-((3-chloro-4-fluorophenyl)amino)-6-(((1-(piperidin-4-yl)-1H-1,2,3-triazol-4-yl)(p-tolyl)methyl)amino) quinoline-3-carbonitrile]
23 | CCN1CCC(n2cc(C(Nc3cc(Cl)c4ncc(C#N)c(Nc5ccc(F)c(Cl)c5)c4c3)c3ccc(C)cc3)nn2)CC1 (stereo not shown) [Example 917, 8-chloro-4-((3-chloro-4-fluorophenyl)amino)-6-(((1-(1-ethylpiperidin-4-yl)-1H-1,2,3-triazol-4-yl)(p-tolyl)methyl)amino)quinoline-3-carbonitrile]
8 | N#Cc1cnc2c(Cl)cc(NC(c3ccccc3)c3cn(C4CCNCC4)nn3)cc2c1Nc1ccc(F)c(Cl)c1 (stereo not shown) [Example 921, 8-chloro-4-((3-chloro-4-fluorophenyl)amino)-6-((phenyl (1-(piperidin-4-yl)-1H-1,2,3-triazol-4-yl)methyl)amino)quinoline-3-carbonitrile]
4 | CCN1CCC(n2cc(C(Nc3cc(Cl)c4ncc(C#N)c(Nc5ccc(F)c(Cl)c5)c4c3)c3ccccc3)nn2)CC1 (stereo not shown) [Example 922, 8-chloro-4-((3-chloro-4-fluorophenyl)amino)-6-(((1-(1-ethylpiperidin-4-yl)-1H-1,2,3-triazol-4-yl)(phenyl)methyl)amino) quinoline-3-carbonitrile]
